Measurements published in patent US20150045410A1, “METHOD OF REGULATING CFTR EXPRESSION AND PROCESSING” (University of Iowa Research Foundation, priority 2012, published 2015).

Target: T1, CFTR-ΔF508 (Homo sapiens, UniProt P13569, DEL508-508)
T1 construct: expressed in transfected cells
Assay: Cell surface ELISA (anti-HA) in HeLa cells stably expressing HA-tagged CFTR-ΔF508
Format: cell-based
Conditions: for surface display of ΔF508-CFTR (live cell-surface ELISA): HeLa-ΔF508-CFTR-HA cells treated daily with drugs, 72 hr post-treatment, vs DMSO (FIG. 28, 29); for mutant CFTR at the cell surface (ELISA): HeLa cells, CFTR-ΔF508-3HA under CMV promoter, oligonucleotide transfection, 6, 12, 24 hrs

T1 sequence (P13569 with tags, fused parts or gaps DEL508-508): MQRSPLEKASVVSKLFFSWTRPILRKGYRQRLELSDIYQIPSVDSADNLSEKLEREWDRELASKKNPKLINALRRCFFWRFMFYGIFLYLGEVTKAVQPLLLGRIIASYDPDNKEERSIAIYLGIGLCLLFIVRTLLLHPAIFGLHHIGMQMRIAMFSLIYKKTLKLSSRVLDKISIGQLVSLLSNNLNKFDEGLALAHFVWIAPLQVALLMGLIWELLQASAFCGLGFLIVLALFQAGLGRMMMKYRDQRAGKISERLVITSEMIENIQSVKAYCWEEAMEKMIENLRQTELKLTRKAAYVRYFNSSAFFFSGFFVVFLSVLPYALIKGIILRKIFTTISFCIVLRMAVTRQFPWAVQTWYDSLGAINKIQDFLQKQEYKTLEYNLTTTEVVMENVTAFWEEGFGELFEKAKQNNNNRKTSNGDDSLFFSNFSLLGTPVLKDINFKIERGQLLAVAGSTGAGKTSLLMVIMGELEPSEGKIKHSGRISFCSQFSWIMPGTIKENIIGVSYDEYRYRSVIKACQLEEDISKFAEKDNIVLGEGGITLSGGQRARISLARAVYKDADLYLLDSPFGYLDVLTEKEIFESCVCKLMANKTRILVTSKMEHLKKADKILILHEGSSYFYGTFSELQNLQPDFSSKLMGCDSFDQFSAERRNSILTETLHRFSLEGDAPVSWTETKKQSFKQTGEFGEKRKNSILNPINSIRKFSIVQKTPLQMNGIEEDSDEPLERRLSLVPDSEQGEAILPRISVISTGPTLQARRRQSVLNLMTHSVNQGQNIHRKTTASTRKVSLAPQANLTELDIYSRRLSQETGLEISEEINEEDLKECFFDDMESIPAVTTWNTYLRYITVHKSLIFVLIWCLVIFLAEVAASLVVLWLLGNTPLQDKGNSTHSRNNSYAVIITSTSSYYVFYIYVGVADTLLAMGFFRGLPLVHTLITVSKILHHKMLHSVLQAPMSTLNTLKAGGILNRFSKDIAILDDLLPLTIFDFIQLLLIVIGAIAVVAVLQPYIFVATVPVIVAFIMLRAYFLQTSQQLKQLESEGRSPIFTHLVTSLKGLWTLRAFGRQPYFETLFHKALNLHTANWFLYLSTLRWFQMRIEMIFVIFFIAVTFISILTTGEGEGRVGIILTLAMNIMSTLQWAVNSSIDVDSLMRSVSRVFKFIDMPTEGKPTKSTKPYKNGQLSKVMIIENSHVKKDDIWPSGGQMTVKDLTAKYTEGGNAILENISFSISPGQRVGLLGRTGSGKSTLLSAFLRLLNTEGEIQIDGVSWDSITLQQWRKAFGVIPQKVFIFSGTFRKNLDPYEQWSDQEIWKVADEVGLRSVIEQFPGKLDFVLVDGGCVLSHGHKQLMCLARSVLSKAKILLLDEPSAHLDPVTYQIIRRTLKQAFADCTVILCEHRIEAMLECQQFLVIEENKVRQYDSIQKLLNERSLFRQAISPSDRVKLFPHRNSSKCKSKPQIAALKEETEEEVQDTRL

Row | Compound | surface display of ΔF508-CFTR (live cell-surface ELISA) | mutant CFTR at the cell surface (ELISA)
1 | O[C@](CCN1CCCCC1)(c1ccccc1)[C@H]1CC2C=CC1C2 (mixture of isomers) [Biperiden] | increased | 
2 | CN1CCC(=C2c3ccccc3CCc3sccc32)CC1 [Pizotifen, 4-(1-methyl-4-piperidylidine)-9, 1 0-dihydro-4H-benzo-[4,5]cyclohepta[1,2]-thiophene] | increased | 
3 | COc1cc2ncnc(Nc3cccc(Cl)c3)c2cc1OC [Tyrophostin (AG-1478), N-(3-chlorophenyl)-6,7-dimethoxy-4-quinazolinamine] | increased | 
4 | SIN3A DsiRNA: Dicer-substrate siRNA against SIN3A, sense SEQ ID NO: 6, antisense SEQ ID NO: 7 (sense GCGAUACAUGAAUUCAGAUACUACC; antisense GGUAGUAUCUGAAUUCAUGUAUCGCUC; chemistry not given here) |  | mutant CFTR reached the cell surface
5 | miR-138 mimic: synthetic modified RNA duplex, sense SEQ ID NO: 4, antisense SEQ ID NO: 5, showing miR-138-like activity |  | mutant CFTR reached the cell surface
